US7714014B2, “Targeting GLI proteins in human cancer by small molecules” (The Regents of the University of California, priority 2005, dated 2010)

Legend:
211H (mesothelioma) = assay: Apoptosis analysis (Annexin V FITC, flow cytometry); format: cell-based, human; conditions: 3 days
Procedure: (§1) Apoptosis was analyzed by using an Annexin V FITC Apoptosis Detection Kit (Biosource, Camarillo, Calif.), according to the manufacturer's protocol. After treatment with different small molecule compounds at various concentrations for about 3 days, cells were harvested by trypsinization, stained and immediately analyzed by flow cytometry (FACScan; Decton Dickinson, Franklin Lake, N.J.). Early apoptotic cells with exposed phosphatidylserine but intact cell membranes will bind to Annexin V-FITC, but not propidium iodide (PI). Cells in necrotic or late apoptotic stages will be labeled with both Annexin V-FITC and PI. “% apoptotic cells” or “% apoptosis” refers to the combined early and late apoptotic cells.
Flow cytometry was used to examine apoptosis in the mesothelioma cell line 211H after treatment of cells with small molecule compounds FN1-5 and FN1-8.

[1] = test system: Primary cultured mesothelioma; assay: as above; format: cell-based, human; conditions: 3 days
Procedure: Fresh cancer tissue and adjacent normal tissue from patients undergoing curative primary resection of their tumors were collected at the time of surgery (IRB approval H8714-15319-040), and immediately snap-frozen in liquid nitrogen. These tissue samples were kept at −170° C. in a liquid nitrogen freezer until further use. Primary tissue cultures were prepared as follows: Fresh cancer tissue was obtained with consent from patients undergoing resection, cut into small pieces (1-2 mm in diameter), and then digested with Collagenase A (Roche Applied Science, Indianapolis, Ind.) at room temperature for 2 hours according to manufacture's protocol. Single cells from the digestion were spun down and the cell pellets were washed twice using RPMI 1640 supplemented with 10% fetal bovine serum, penicillin (100 IU/ml) and streptomycin (100 μg/ml). Then, the cells were resuspended in the same medium and cultured in 6-well plates at 37° C. in a humid incubator with 5% CO2 until they were ready for further treatments.
as §1
Next, flow cytometry was used to examine apoptosis after the treatment of small molecule compound FN1-5 at different doses (10 μM, 30 μM and 50 μM) for 3 days in primary cultured human mesothelioma cells freshly made from tissue samples.

[2] = test system: colon cancer cell lines LoVo and CaCO2; assay: Cell survival assay (crystal violet); format: cell-based, human; conditions: for cell killing: data not shown
Procedure: (§2) Typically, the small molecule compounds of the present invention were dissolved in DMSO at a concentration of 30 mM. The small molecule compounds were then tested under cell culture conditions at different concentrations ranging from 0, 10, 30, 50, to 100 uM. To determine cell survival after treatment, the cells were incubated with the small molecule compounds in 6-well plates for about 3 days. After removal of the cell culture medium, 1-ml of 0.5% crystal violet solution (prepared in 20% ethanol and 20% methanol) was added to stain the cells for 5 min. Then the crystal violet solution was rinsed clean with tap water. Cell survival was estimated based on the density of crystal stained plates.
Both, small molecule compounds FN1-5 and FN1-8 induced apoptosis in CaCO2 (Tables 2 and 3).

[3] = test system: human nasopharyngeal cancer cell lines HNE1 and HONE1; assay: Cell survival assay (crystal violet); format: cell-based; conditions: for cell killing: 50 μM
Procedure: as §2
The cell-based cytotoxicity assay described herein was used to determine the effect of small molecule compounds FN1-5 and FN1-8 in the human nasopharyngeal cancer cell lines HNE1 and HONE1. Viability of these cells was analyzed after treatment with 10, 30 and 50 μM FN1-5 or FN1-8.

normal human renal cells = assay: Cell survival assay (crystal violet); format: cell-based; conditions: FN1-5 30 and 50 μM; FN1-8 10, 30, and 50 μM; 3 days
Procedure: as §2
The cell killing effect of small molecule compounds FN1-5, and FN1-8 at different doses was examined in normal human renal cells. Normal renal cells were plated in 6-well plates and incubated with 30 and 50 μM of compound FN1-5 and 10, 30, and 50 μM FN1-8 for 3 days, in the same manner as described herein for similar other experiments.

[4] = test system: hedgehog pathway in melanoma cell line LOX, colon cancer cell line SW480 and primary cultured human mesothelioma cells; assay: Semi-quantitative RT-PCR of Hedgehog pathway genes; format: cell-based; conditions: data not shown
Procedure: Total RNA from cell lines or tissue samples was isolated using Qiagen RNeasy Mini Kit (Valencia, Calif.). RT-PCR was performed in GeneAmp PCR system 2700 (Applied Biosystems, Foster City, Calif.) using One-step RT-PCR Kit from Invitrogen Life Technologies (Carlsbad, Calif.). Primers for RT-PCR were obtained from Operon Technologies Inc. (Alameda, Calif.). Primer sequences for amplifying different genes in Hedgehog and Wnt signaling pathways are listed in the table below (Table 1; F, forward primer; R, reverse primer). The expected size of the PCR product is indicated for each primer pair. GAPDH was used as internal control.

[5] = test system: human Gremlin promoter in HEK 293T cells; assay: Gremlin promoter-luciferase reporter assay; format: cell-based; conditions: 30 μM, 18-24 hours
Procedure: One day before transfection, cells (1×10^5) were plated in 12-well plates with growth medium without antibiotics. When cells reached 80-90% of confluence they were co-transfected using 0.5 μg of each promoter construct in pGL3Basic vector and 0.025 μg pRL-TK Vector (Promega; Madison, Wis.) containing Renilla Luciferase as an internal control for the transformation efficiency. Lipofectamine 2000™ (Invitrogen Life Technologies) was used to mediate transfection for about 6 hours. Then the medium was replaced with fresh medium containing various small molecule compounds at a concentration of 30 μM, and the resulting cells were cultured for an additional 18-24 hours and subjected to luciferase assay. Briefly, cells were lysed in a lysis buffer and Firefly and Renilla Luciferase activities in cells of each well, were measured using Dual-Luciferase Assay System (Promega) and an illuminometer. The measured luciferase activities were normalized to pRL-TK Vector activity and were given relative to the basal activity of empty pGL3-Basic Vector, which was set to unity. The data shown represent mean values (±S.D.). All measurements were performed in triplicate and repeated in at least three independent experiments. […]

Row | Compound | % of apoptotic cells (211H (mesothelioma); 10 μM) | % of apoptotic cells (211H (mesothelioma); 30 μM) | % of apoptotic cells ([1]; 10 μM) | % of apoptotic cells ([1]; 30 μM) | % of apoptotic cells ([1]; 50 μM) | cell killing [2] | cell killing [3] | cell killing effect in normal cells (normal human renal cells) | modulation of hedgehog pathway (RT-PCR) [4] | Gremlin promoter activity [5] | cell killing potency compared with FN1-5 [2] | cell killing potency compared with FN1-5 [3]
1 | O=C(NCCCCCO)C1C(c2ccccc2)=NN(c2ccccc2)C1c1ccccc1 (stereo not shown) [FN1-5, N-(5-Hydroxypentyl)-1,3,5-triphenyl-4,5-dihydro-pyrazole-4-carboxyamide] | 7.7% | 37.5% | 12.3% | 15.8% | 18.3% | dramatic cell killing | dramatic cell killing | No noticeable cell killing effect | modulate the hedgehog pathway | inactive |  | 
2 | O=C(NCCc1ccc(O)cc1)C1C(c2ccccc2)=NN(c2ccccc2)C1c1ccccc1 (stereo not shown) [FN1-8, N-(2-(4-Hydroxyphenyl)ethyl)-1,3,5-triphenyl-4,5-dihydro-pyrazole-4-carboxyamide] | 5.6% | 30.7% | 13.2% | 14.7% | 33.6% | dramatic cell killing | dramatic cell killing | No noticeable cell killing effect | modulate the hedgehog pathway | inactive | more potent than FN1-5 | more potent
